Test results as given in US10766940B2, “Brain penetrant amylin receptor based peptides for Alzheimer's disease” (The Governors of the University of Alberta, priority 2016, dated 2020).
Residues, ends and D or L forms follow the SMILES beside them.

Experiments:
[1] = Ex vivo brain imaging of peptide fragments after ip injection, wild-type mice; assay type: in vivo, mouse
Description: For ex vivo imaging experiments and peptide brain uptake, age matched 6-month-old wild-type littermate (C57BL/6 background) mice were used. […] After 2 hours the mice were then sacrificed to collect their brains, and imaged using the Kodak imager as described above, but with an exposure time of 3 min per image for NIRF image.
For ex vivo histological studies, brains were excised, embedded in OCT, then sliced into 20-μm slices, co-stained with DAPI in mounting medium.
(§1) Mice were injected with a single dose and then sacrificed, and the brains were extracted after 2 hours from injection. Fluorescence in brains was quantified as previously described.

[2] = test system: heterozygous CTR knockdown mice (50% depletion of amylin receptors); test: R5 brain uptake in heterozygous CTR knockdown mice; assay type: in vivo, mouse; settings: Wt vs CTR knockdown mice, ip, 2 hr
Description: as §1

[3] = test system: TgCRND8 AD mouse model; test: Morris Water Maze, chronic icv infusion of AC253; assay type: in vivo
Description: (§2) Age-matched, wild-type littermate (C57BL/6 background) male or female mice were used. […] Heterozygous CTR (het CTR) mice (C57BL/6J background) with a 50% deletion of CTR were obtained from Drs. R. A. Davey and J. D. Zajac (Department of Medicine, Austin Health, University of Melbourne, Heidelberg, Victoria, Australia). Mice were housed individually under standard laboratory conditions (12/12-h light/dark cycle, lights on at 0600 h) with a room temperature of 21° C. Water and food were available ad libitum unless otherwise indicated. All tests were performed during the light phase between 0900 and 1600 h in accordance with institutional guidelines. The mice were 3 months old at the onset of testing.
(§3) A microcannula was stereotaxically inserted into the right cerebral ventricle (0.12 right lateral and 0.06 posterior to bregma, 3 mm deep) of isofluorane-anesthetized mice, and connected to an osmotic pump (Alzet; model 2004) implanted subcutaneously on the back of the mouse. The pump infused a solution of either aCSF or AC253 in aCSF into the ventricle at a rate of […] to yield an estimated concentration of 1 μM AC253 in the mouse CSF at equilibrium based upon the known CSF dynamics in the mouse brain (Di Pardo et al., 2012). The pump reservoir was replaced every 28 days for a total of 5-6 months. Animals were monitored on a daily basis for signs of treatment-related toxicity, such as poor grooming, lethargy, loss of bodyweight, and abnormal behavior. […]
The MWM apparatus consisted of a 2 m circular blue plastic pool filled with water (24-25° C.), which was rendered opaque by the addition of non-toxic white paint. […] The behavior of a mouse was recorded by a video camera connected to a video tracking system (HVS Image 2100, HVS Image, Buckingham, UK).
The pool was surrounded by a white curtain, and a mouse was released facing the wall at points (N, E, S, W) which were chosen semi-randomly. […] Memory was evaluated in probe trial, administered on day 8 as the first trial of the day. […] Memory for the platform location was expressed as the percent of time spent in TQ.

[4] = test system: TgCRND8 AD mouse model; test: T-maze alternation, chronic icv infusion of AC253; assay type: in vivo; settings: TgCRND8 mice receiving icv AC253 vs other groups
Description: as §2
as §3, with “The pump reservoir was replaced every 28 days for a total of 5-6 months.” left out

Row | SMILES | brain permeability, imaging of the intact brain ([1]; 0.1 mmol ip, 2 hr post-injection, tested alongside Davlintide) | brain permeability compared to AC253 ([1]; 2 hr post-ip injection, wild-type mice) | brain uptake in relation to amylin receptor expression [2] | latencies to locate the hidden platform (MWM) ([3]; TgCRND8 mice at 8 months of age, after 5 months of icv treatment, vs littermates receiving CSF) | memory in probe trials for location of the target quadrant ([3]; TgCRND8 mice, 8 months of age) | memory deficits in MWM, Wt controls ([3]; wild-type littermate controls, icv AC253 or CSF, 8 months of age) | T-maze, identification of the food arm [4]
1 | CC(C)C[C@H](NC(=O)[C@H](CCC(=O)O)NC(=O)[C@H](CCC(N)=O)NC(=O)[C@@H](N)CO)C(=O)N[C@@H](Cc1c[nH]cn1)C(=O)N[C@@H](CCCNC(=N)N)C(=O)N[C@@H](CC(C)C)C(=O)N[C@@H](CCC(N)=O)C(=O)N[C@H](C(=O)N[C@@H](Cc1ccc(O)cc1)C(=O)N1CCC[C@H]1C(=O)N[C@@H](CCCNC(=N)N)C(N)=O)[C@@H](C)O [R5] (H-SQELHRLQTYPR-NH2; N-terminus assumed) | marked brain permeability | marked increase in brain permeability | proportional to the degree of amylin receptor expression |  |  |  | 
2 | CC(C)C[C@H](NC(=O)[C@H](CCCNC(=N)N)NC(=O)CNC(=O)[C@@H](N)CC(C)C)C(=O)N[C@@H](CO)C(=O)N[C@@H](CCC(N)=O)C(=O)N[C@@H](CCC(=O)O)C(=O)N[C@@H](CC(C)C)C(=O)N[C@@H](Cc1c[nH]cn1)C(=O)N[C@@H](CCCNC(=N)N)C(=O)N[C@@H](CC(C)C)C(=O)N[C@@H](CCC(N)=O)C(=O)N[C@H](C(=O)N[C@@H](Cc1ccc(O)cc1)C(=O)N1CCC[C@H]1C(=O)N[C@@H](CCCNC(=N)N)C(=O)N[C@H](C(=O)N[C@@H](CC(N)=O)C(=O)N[C@H](C(=O)NCC(=O)N[C@@H](CO)C(=O)N[C@@H](CC(N)=O)C(=O)N[C@H](C(=O)N[C@@H](Cc1ccc(O)cc1)C(N)=O)[C@@H](C)O)[C@@H](C)O)[C@@H](C)O)[C@@H](C)O [AC253] |  |  |  | marked improvement in latencies to locate the hidden platform | enhanced and persistent memory in probe trials | no memory deficits | correctly identified the food arm of the maze
